The values below come from ChEMBL document CHEMBL1201862, “PubChem BioAssay data set” (2004).

The target in one assay is T1, Hexokinase (Trypanosoma brucei, UniProt Q38C41).
T1 sequence (Q38C41 whole entry): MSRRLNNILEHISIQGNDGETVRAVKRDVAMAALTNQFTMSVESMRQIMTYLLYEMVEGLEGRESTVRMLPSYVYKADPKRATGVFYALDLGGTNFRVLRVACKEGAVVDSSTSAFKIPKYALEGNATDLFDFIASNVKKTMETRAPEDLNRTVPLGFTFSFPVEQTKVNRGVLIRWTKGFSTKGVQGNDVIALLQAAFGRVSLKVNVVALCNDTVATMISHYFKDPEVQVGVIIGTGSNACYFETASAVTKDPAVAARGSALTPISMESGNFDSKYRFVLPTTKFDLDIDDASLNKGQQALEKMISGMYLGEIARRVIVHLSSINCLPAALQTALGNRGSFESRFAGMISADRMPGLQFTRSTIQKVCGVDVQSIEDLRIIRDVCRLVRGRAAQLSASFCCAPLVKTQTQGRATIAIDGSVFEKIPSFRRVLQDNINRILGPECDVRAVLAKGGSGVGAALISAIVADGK
As to the kind of experiment: Confirmation assay for inhibitors of Trypanosoma brucei hexokinase 1-Analogue-first series. [Related pubchem assays (depositor defined):AID1430, AID1632, AID2516, AID2560, AID2579, AID2600, AID449725, AID492951]. It counts as functional.

Assay [1] can be described thus: viability of uninfected HEp-2 cells – cell-based, HTS, cytotoxicity control for RSV inhibitor project, dose response (AID 2410). It counts as functional. As to conditions: human respiratory syncytial virus.
The target of assay [2] is G-protein coupled receptor 55 (Homo sapiens, UniProt Q9Y2T6). In words: selective activators of receptor GPR55 – imaging, U2OS cells, beta-arrestin-GFP redistribution, primary screen (AID 1961). It counts as functional.
In the next assay the target is T2, Coagulation factor XII (Homo sapiens, UniProt P00748).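 Further: activated factor XIIa alpha cleaving a fluorogenic AMC peptide substrate; inhibitor potency from loss of enzyme activity.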
T2 sequence (P00748 whole entry): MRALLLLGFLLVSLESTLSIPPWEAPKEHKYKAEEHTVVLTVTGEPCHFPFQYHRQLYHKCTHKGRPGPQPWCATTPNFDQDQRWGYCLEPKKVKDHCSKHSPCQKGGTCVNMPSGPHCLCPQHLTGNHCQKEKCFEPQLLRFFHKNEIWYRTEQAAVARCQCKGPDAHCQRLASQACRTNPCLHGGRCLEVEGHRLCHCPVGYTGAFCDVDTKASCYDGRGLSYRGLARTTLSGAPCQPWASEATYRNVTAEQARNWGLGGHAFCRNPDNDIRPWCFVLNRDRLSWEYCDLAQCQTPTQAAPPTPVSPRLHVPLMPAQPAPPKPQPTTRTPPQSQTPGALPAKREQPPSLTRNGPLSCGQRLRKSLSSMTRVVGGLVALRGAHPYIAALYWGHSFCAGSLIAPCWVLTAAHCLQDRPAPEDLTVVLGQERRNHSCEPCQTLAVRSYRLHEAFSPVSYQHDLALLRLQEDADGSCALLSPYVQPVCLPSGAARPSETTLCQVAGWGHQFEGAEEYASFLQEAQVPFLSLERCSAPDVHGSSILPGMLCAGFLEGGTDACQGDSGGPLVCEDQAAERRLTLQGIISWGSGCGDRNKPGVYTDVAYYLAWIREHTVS
It counts as functional.

The target of assay [3] is T3, Alkaline phosphatase, tissue-nonspecific isozyme (Homo sapiens, UniProt P05186).
T3 sequence (P05186 whole entry): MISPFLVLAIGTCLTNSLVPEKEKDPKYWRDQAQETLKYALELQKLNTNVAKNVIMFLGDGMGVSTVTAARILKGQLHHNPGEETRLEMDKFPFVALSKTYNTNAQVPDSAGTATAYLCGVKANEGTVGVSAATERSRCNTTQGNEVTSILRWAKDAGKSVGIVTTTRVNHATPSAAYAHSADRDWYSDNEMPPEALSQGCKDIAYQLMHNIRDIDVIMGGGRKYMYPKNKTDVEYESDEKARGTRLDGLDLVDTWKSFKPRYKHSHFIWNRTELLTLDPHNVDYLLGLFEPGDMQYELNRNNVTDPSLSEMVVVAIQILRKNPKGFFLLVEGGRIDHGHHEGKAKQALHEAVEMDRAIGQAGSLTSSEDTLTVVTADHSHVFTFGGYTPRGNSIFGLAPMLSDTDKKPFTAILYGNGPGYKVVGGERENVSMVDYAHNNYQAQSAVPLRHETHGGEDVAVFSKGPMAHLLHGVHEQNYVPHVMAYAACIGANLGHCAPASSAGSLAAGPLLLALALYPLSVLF
In words: potency against alkaline phosphatase TNAP – biochemical, luminescent, dose response, SAR follow-up (AID 1056).

For assay [4], the target named is Alkaline phosphatase, placental type (Homo sapiens, UniProt P05187). As to the kind of experiment: human placental alkaline phosphatase inhibition – biochemical, luminescence, confirmation (AID 1512). It counts as functional.
Assay [5] concerns the target T4, Mannose-6-phosphate isomerase (Homo sapiens, UniProt P34949).
T4 sequence (P34949 whole entry): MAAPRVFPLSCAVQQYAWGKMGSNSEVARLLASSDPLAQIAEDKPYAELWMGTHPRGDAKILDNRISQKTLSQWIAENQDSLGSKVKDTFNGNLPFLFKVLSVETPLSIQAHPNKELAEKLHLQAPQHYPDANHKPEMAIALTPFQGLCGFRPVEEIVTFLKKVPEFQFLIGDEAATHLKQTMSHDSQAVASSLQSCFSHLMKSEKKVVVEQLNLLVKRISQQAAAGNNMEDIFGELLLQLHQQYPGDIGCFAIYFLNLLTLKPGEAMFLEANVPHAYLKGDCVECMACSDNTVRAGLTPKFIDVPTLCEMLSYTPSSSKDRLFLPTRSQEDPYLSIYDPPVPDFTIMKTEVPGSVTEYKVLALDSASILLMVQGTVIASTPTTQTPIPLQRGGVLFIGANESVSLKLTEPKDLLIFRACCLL
As to the kind of experiment: phosphomannose isomerase inhibition – biochemical, fluorescence intensity, confirmation (AID 1535).

Assay [6] deals with Voltage-dependent T-type calcium channel subunit alpha-1H (Homo sapiens, UniProt O95180). It counts as functional.
Another assay addresses Cytochrome P450 2D6 (Homo sapiens, UniProt P10635).
A further assay deals with HeLa. As to the kind of experiment: ATP-based viability loss in HeLa cells – cell-based, CellTiter-Glo luminescence, cherry-pick samples, cytotoxicity control for MITF activator project, dose response (AID 540259). It counts as functional. As to conditions: Homo sapiens.
Another assay has as its target Large T antigen (Simian virus 40, UniProt P03070). It counts as functional, Betapolyomavirus macacae.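 Further: Confirmatory-stage PubChem screen for compounds that inhibit SV40 T antigen.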
A further assay concerns the target Cytochrome P450 3A4 (Homo sapiens, UniProt P08684).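 Further: CYP3A4 tested as one member of a cytochrome P450 panel screen.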
Another assay addresses T5, Cytochrome P450 1A2 (Homo sapiens, UniProt P05177).
T5 sequence (P05177 whole entry): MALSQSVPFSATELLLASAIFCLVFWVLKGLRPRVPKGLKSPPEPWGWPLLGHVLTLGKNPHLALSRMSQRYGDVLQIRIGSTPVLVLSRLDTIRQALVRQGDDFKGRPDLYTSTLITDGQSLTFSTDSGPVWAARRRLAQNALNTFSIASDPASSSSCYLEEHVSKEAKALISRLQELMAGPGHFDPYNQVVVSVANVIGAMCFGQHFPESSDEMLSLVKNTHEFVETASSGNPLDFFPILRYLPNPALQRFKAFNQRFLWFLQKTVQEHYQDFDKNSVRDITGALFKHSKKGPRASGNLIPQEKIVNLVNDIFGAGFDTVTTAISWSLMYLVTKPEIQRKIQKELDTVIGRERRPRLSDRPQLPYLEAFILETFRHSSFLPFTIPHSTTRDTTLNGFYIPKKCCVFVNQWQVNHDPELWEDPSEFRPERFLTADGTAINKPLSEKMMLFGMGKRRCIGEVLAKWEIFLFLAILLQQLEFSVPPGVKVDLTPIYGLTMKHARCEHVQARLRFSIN

In the next assay the target is T6, Aminopeptidase N (Plasmodium falciparum FcB1/Columbia, UniProt O96935).
T6 sequence (O96935 whole entry): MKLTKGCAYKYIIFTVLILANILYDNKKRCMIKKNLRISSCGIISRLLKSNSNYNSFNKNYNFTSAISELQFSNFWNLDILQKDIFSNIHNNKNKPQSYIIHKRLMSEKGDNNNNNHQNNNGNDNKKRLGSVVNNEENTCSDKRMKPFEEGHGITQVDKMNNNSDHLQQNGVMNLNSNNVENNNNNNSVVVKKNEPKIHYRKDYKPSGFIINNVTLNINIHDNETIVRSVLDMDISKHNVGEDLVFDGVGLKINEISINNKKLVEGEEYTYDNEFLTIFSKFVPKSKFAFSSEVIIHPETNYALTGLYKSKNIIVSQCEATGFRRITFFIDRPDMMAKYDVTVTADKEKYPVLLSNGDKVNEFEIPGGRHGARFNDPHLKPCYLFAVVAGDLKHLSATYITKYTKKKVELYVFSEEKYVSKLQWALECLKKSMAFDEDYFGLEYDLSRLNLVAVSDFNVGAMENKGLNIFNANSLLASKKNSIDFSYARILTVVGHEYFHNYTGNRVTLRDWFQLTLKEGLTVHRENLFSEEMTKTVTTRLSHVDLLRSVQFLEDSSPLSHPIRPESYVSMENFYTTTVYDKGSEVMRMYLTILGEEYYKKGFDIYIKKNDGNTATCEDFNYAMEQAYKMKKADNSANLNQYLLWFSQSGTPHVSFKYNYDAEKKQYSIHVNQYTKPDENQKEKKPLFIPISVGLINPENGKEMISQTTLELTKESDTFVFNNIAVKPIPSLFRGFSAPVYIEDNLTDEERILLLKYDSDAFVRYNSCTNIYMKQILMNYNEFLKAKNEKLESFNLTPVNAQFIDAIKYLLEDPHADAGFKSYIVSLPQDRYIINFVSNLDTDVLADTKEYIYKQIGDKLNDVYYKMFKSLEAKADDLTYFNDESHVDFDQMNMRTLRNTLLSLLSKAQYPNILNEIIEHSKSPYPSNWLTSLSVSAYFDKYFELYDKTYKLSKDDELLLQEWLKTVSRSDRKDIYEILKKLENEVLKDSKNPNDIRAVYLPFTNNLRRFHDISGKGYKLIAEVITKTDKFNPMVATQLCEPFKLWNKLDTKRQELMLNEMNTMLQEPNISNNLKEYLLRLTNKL
As to the kind of experiment: malaria alanyl aminopeptidase activity blockers – biochemical, fluorogenic H-Leu-NHMec substrate, 1536-well (AID 1445). On the set-up: species or system Plasmodium falciparum 3D7, 3D7.

Another assay deals with H9c2. As to the kind of experiment: cells. It counts as functional, cell-based. As to conditions: Rattus norvegicus, H9c2, Myocardium.
Assay [7] addresses Glyceraldehyde-3-phosphate dehydrogenase (Homo sapiens, UniProt P04406).

Active and inactive are the calls of the source.

G-protein coupled receptor 55, sequence (Q9Y2T6 whole entry): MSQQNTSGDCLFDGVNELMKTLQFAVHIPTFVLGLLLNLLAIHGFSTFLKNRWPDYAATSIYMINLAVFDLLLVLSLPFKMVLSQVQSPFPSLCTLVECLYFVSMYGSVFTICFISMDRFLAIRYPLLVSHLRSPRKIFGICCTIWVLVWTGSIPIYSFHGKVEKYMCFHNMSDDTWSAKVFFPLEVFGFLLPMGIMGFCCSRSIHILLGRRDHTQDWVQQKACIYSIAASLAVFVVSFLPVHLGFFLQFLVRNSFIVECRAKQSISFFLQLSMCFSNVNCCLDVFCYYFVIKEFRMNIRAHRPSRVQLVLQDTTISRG
Alkaline phosphatase, placental type, sequence (P05187 whole entry): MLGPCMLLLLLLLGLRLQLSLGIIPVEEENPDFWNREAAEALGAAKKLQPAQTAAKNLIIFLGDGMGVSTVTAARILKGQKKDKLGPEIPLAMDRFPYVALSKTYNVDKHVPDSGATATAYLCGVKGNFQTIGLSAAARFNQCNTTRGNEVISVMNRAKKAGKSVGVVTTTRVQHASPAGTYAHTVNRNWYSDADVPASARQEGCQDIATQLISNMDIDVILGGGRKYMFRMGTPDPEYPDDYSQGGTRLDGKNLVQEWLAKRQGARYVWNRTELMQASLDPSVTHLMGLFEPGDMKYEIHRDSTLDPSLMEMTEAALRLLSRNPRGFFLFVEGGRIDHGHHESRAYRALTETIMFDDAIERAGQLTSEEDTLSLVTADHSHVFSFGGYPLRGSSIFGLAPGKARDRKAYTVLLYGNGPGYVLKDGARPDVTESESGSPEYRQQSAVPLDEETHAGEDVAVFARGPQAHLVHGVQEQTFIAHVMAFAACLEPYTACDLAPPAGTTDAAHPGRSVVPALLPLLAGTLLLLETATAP
Glyceraldehyde-3-phosphate dehydrogenase, sequence (P04406 whole entry): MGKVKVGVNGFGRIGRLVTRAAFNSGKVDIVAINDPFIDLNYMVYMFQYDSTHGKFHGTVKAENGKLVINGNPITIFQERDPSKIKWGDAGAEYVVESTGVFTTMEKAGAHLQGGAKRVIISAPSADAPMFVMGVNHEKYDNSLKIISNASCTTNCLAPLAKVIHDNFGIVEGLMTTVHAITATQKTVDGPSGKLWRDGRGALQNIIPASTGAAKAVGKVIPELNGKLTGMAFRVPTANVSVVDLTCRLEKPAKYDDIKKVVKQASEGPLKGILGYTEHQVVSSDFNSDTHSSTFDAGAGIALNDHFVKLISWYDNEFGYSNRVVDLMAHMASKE
Cytochrome P450 2D6, sequence (P10635 whole entry): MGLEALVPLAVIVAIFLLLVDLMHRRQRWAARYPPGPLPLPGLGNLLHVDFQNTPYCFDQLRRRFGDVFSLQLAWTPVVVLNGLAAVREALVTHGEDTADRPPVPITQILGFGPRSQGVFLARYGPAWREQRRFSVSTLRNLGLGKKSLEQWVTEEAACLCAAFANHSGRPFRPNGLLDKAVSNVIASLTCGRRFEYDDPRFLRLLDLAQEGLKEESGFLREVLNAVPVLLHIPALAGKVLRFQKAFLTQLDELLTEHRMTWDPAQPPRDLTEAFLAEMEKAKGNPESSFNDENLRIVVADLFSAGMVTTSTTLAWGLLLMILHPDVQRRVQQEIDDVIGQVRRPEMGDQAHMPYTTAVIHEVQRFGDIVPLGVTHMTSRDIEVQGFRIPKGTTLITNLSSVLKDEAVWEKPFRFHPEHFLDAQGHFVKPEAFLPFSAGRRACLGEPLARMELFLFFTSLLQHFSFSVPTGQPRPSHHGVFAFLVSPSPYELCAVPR
Large T antigen, sequence (P03070 whole entry): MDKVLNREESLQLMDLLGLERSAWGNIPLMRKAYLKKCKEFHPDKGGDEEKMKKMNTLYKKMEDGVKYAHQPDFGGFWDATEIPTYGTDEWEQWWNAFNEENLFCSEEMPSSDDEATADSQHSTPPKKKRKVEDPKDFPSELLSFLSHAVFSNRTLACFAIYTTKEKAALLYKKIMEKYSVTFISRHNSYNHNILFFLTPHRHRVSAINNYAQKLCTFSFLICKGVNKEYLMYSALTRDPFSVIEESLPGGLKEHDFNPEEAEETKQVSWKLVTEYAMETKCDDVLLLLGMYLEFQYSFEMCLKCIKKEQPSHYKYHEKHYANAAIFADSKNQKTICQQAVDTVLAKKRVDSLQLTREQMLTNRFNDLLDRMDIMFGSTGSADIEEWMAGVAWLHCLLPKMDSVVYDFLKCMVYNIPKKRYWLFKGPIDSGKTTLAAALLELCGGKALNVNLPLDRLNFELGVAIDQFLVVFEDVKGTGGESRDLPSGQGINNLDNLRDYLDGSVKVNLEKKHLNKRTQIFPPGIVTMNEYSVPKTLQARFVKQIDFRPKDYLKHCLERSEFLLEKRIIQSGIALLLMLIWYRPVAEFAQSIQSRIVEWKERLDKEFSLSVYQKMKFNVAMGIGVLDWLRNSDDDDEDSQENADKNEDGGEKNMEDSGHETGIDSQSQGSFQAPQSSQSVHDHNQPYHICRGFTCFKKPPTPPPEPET
Cytochrome P450 3A4, sequence (P08684 whole entry): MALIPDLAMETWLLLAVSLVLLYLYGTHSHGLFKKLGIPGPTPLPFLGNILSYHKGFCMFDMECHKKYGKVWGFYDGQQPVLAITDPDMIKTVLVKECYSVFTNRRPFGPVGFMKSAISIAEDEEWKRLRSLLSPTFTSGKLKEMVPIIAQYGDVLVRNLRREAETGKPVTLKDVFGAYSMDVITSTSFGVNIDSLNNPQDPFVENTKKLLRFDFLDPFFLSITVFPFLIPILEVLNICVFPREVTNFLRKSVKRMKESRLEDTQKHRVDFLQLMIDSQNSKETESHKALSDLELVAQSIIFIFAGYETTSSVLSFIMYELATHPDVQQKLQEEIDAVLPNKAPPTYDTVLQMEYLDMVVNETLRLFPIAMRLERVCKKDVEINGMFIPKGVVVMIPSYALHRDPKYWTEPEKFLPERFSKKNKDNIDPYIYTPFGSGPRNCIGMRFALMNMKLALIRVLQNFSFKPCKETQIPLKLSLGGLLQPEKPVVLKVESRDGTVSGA

For the compound `COc1ccc(C(=O)Nc2ccccc2C(=O)O)cc1`, the IC50 at Hexokinase was > 25 µM (inactive).

On to `COc1cc2c(cc1NC(=O)CSc1ccc(C)cc1)oc1ccccc12`, for which the CC50 in assay [1] is 28.4 µM (active). Besides, in assay [2], the EC50 is 1.15 µM (active).

As to `O=C(Cn1nnc(-c2ccccc2)n1)OCc1csc(-c2ccccc2)n1`, the IC50 at Coagulation factor XII was > 50 µM (inactive).

As for `C=CCn1c(SCC(=O)c2ccc(O)c(O)c2)nnc1-c1ccccc1`, the IC50 is 19.5 µM (active) in assay [3] and 2.53 µM (active) in assay [4].

As for `Clc1ccnc(/N=c2\ssnc2Cl)c1`, the IC50 in assay [5] is > 100 µM (inactive).

`Cc1csc(NC(=O)Cc2c[nH]c3ccccc23)n1`: in assay [6], the EC50 was 9.34 µM (active). Moreover, the AC50 at Cytochrome P450 2D6 was 22.4 µM (inconclusive); in the assay on HeLa, 320 µM (active). On Coagulation factor XII, the IC50 was > 50 µM (inactive).

Take `CCOC(=O)c1c(N2C(=O)Nc3cc(Cl)c(Cl)cc3N2O)sc2c1CCCCC2`: the figures for the half-inhibitory concentration (IC50) on Large T antigen and on Aminopeptidase N were > 100 µM (active) and 81.7 µM (active), respectively. The figures for the AC50 on Cytochrome P450 3A4 and on Cytochrome P450 1A2 were 10 µM (inconclusive) and 39.8 µM (inconclusive), respectively.

As for `C#CCOc1nc(Nc2cccc([N+](=O)[O-])c2)nc(OCC#C)n1`, the IC50 on Coagulation factor XII was > 50 µM (inactive); in the assay with H9c2, > 79 µM (inactive).

Consider `COCc1nc(-c2cc(OC)c(OC)c(OC)c2)no1`, for which the EC50 in assay [2] is > 32 µM (inactive).

Take `Cc1cc(NC(=O)CSc2nc3ccsc3c(=O)n2NC(=O)c2ccccc2)no1`: at Aminopeptidase N, the IC50 was 23.7 µM (active).

In the case of `Cc1ccccc1-n1nc(CSc2nc3ccccc3[nH]2)c(-c2ccccc2)c1N`, the IC50 in assay [4] was > 100 µM (inactive).

With `COc1ccc(C2=NN(c3nc(-c4ccc(CNC(C)=O)cc4)cs3)C(c3ccco3)C2)cc1` (centres undefined), the EC50 in assay [2] is 1.04 µM (active).

As to `COC(=O)c1ccc(Cl)cc1NC(=O)c1ccc(Cl)cc1`, the IC50 at Hexokinase was > 25 µM (inactive).

For `O=C(O)c1cc(-c2cc(F)c(Cl)cc2Cl)n[nH]1`, the IC50 in assay [3] was 1.09 µM (active); in [7] it was > 100 µM (not active); in assay [4], > 100 µM (inactive).

For `C/C=C/c1ccc(OCCOc2cc(C=O)ccc2OC)c(OC)c1`, the IC50 on Aminopeptidase N was 88.9 µM (active).

In the case of `COc1ccc(-c2cc(C(=O)O)[nH]n2)c(OC)c1`, the results for the half-maximal inhibitory concentration (IC50) in assay [3] and in assay [7] were 38.2 µM (active) and > 100 µM (not active), respectively.

On to `COc1cccc(C(=O)Nc2cc(Cl)ccc2C(=O)O)c1`, for which the IC50 on Hexokinase is 17.9 µM (active).

Usually IC50 stands for the point on the concentration scale where inhibition reaches its midpoint. The term CC50 denotes the concentration that lowers cell viability or growth by half. As a reminder, the EC50 is the concentration giving half of the maximal effect. Usually AC50 stands for the concentration giving half of the maximal activity seen.
